Measured values taken from paper PMC13185819, “De Novo Multi‐Mechanism Antimicrobial Peptide Design via Multimodal Deep Learning” (Advanced Science, 2026).
≈ marks a conversion by molar mass, not a printed value. Residues, ends and D or L forms follow the SMILES beside them.

Columns and labels:
Assay type in all cases: cell-based
E. faecium 21 = system: E. faecium 21
Procedure: (§1) Standard strains included S. aureus ATCC33592, S. aureus CICC25138, and Salmonella enterica ATCC14028, which were purchased from the China Center of Industrial Culture Collection (CICC). Standard strains including E.coli CMCC44102, Salmonella enterica CMCC50071, and S. aureus CMCC26003 were purchased from the National Center for Medical Culture Collections (CMCC). […] All experiments using the above strains were carried out in a BSL‐2 laboratory. The clinical laboratory of Qilu Hospital detected bacterial resistance to various antibiotics. All strains were streaked on Nutrient Broth (NB) agar medium and incubated overnight at 37°C.
(§2) The antimicrobial activity of the peptides was examined in sterile 96‐well plates using the broth microdilution according to the CLSI standard. The colonies were suspended in saline solution, the turbidity was adjusted to McFarland 0.5 to reach a bacterial concentration of 10^8 CFU/mL, and again diluted 100 times for the inhibition test. Then, 50 µL of bacterial suspension at 1 × 10^6 CFU/mL was incubated with the same volume of different concentrations of peptide solution [serial twofold dilutions in Mueller–Hinton Broth (Hopebio)]. […] All experiments were performed with three independent replicates.

S. aureus 103 = system: S. aureus 103
Procedure: as §1, §2

E. faecium 1042 = system: E. faecium 1042
Procedure: as §1, §2

S. aureus CMCC26003 = system: S. aureus CMCC26003
Procedure: as §1, §2

S. aureus CICC25138 = system: S. aureus CICC25138
Procedure: as §1, §2

E.coli CMCC44102 = system: E.coli CMCC44102
Procedure: as §1, §2

S. aureus ATCC33592 = system: S. aureus ATCC33592
Procedure: as §1, §2

E.coli 208 = system: E.coli 208
Procedure: as §1, §2

E.coli 110 = system: E.coli 110
Procedure: as §1, §2

P. aeruginosa 119 = system: P. aeruginosa 119
Procedure: as §1, §2

S. aureus 129 = system: S. aureus 129
Procedure: as §1, §2

K. pneumoniae 7713 = system: K. pneumoniae 7713
Procedure: as §1, §2

P. aeruginosa 112 = system: P. aeruginosa 112
Procedure: as §1, §2

P. aeruginosa 116 = system: P. aeruginosa 116
Procedure: as §1, §2

Structure (SMILES)	MIC (μg/mL) E. faecium 21 (E. faecium 21)	MIC (μg/mL) S. aureus 103 (S. aureus 103)	MIC (μg/mL) E. faecium 1042 (E. faecium 1042)	MIC (μg/mL) S. aureus CMCC26003 (S. aureus CMCC26003)	MIC (μg/mL) S. aureus CICC25138 (S. aureus CICC25138)	MIC (μg/mL) E.coli CMCC44102 (E.coli CMCC44102)	MIC (μg/mL) S. aureus ATCC33592 (S. aureus ATCC33592)	MIC (μg/mL) E.coli 208 (E.coli 208)	MIC (μg/mL) E.coli 110 (E.coli 110)	MIC (μg/mL) P. aeruginosa 119 (P. aeruginosa 119)	MIC (μg/mL) S. aureus 129 (S. aureus 129)	MIC (μg/mL) K. pneumoniae 7713 (K. pneumoniae 7713)	MIC (μg/mL) P. aeruginosa 112 (P. aeruginosa 112)	MIC (μg/mL) P. aeruginosa 116 (P. aeruginosa 116)
CC[C@H](C)[C@H](NC(=O)[C@H](CC(C)C)NC(=O)[C@@H](NC(=O)[C@H](C)NC(=O)[C@@H](N)CC(C)C)C(C)C)C(=O)N[C@@H](Cc1ccccc1)C(=O)N[C@H](C(=O)N[C@@H](CCCNC(=N)N)C(=O)N[C@@H](CCCNC(=N)N)C(=O)N[C@@H](CCCCN)C(=O)N[C@@H](CCC(N)=O)C(=O)N[C@@H](CC(C)C)C(N)=O)C(C)C [QLX-3DV-17] (H-LAVLIFVRRKQL-NH2)	16 µg/mL (≈ 11 µM)	32 µg/mL (≈ 22 µM)	8 µg/mL (≈ 5.5 µM)	4 µg/mL (≈ 2.75 µM)	32 µg/mL (≈ 22 µM)	8 µg/mL (≈ 5.5 µM)	64 µg/mL (≈ 44 µM)	16 µg/mL (≈ 11 µM)	32 µg/mL (≈ 22 µM)	64 µg/mL (≈ 44 µM)	16 µg/mL (≈ 11 µM)			
CC[C@H](C)[C@H](NC(=O)[C@H](Cc1c[nH]c2ccccc12)NC(=O)[C@@H]1CCCN1C(=O)[C@H](CC(C)C)NC(=O)[C@H](CCCCN)NC(=O)[C@H](Cc1c[nH]c2ccccc12)NC(=O)[C@H](C)NC(=O)[C@H](CCCNC(=N)N)NC(=O)[C@H](CCC(N)=O)NC(=O)[C@H](CCC(N)=O)NC(=O)[C@@H](N)Cc1ccc(O)cc1)C(=O)N[C@@H](CC(C)C)C(=O)N[C@@H](CCCNC(=N)N)C(=O)N[C@@H](Cc1ccccc1)C(=O)N[C@@H](CC(C)C)C(=O)N[C@@H](CCCNC(=N)N)C(=O)N[C@@H](CC(C)C)C(N)=O [QLX-3DV-18] (H-YQQRAWKLPWILRFLRL-NH2)	8 µg/mL (≈ 3.5 µM)	16 µg/mL (≈ 7 µM)	8 µg/mL (≈ 3.5 µM)	16 µg/mL (≈ 7 µM)	16 µg/mL (≈ 7 µM)	16 µg/mL (≈ 7 µM)		8 µg/mL (≈ 3.5 µM)	32 µg/mL (≈ 14 µM)	64 µg/mL (≈ 28 µM)	32 µg/mL (≈ 14 µM)	64 µg/mL (≈ 28 µM)	8 µg/mL (≈ 3.5 µM)	
CC[C@H](C)[C@H](N)C(=O)N[C@H](C(=O)N[C@H](C(=O)N[C@@H](CCCNC(=N)N)C(=O)N[C@@H](Cc1ccccc1)C(=O)N[C@@H](CC(C)C)C(=O)N[C@@H](CCCCN)C(=O)N1CCC[C@H]1C(=O)N[C@@H](CCCCN)C(=O)N[C@@H](CC(C)C)C(=O)N[C@@H](CC(C)C)C(=O)N[C@@H](CCCCN)C(=O)N[C@@H](C)C(=O)N[C@@H](CC(C)C)C(=O)N[C@@H](CCCCN)C(N)=O)[C@@H](C)CC)C(C)C [QLX-3DV-19] (H-IVIRFLKPKLLKALK-NH2)	16 µg/mL (≈ 8.99 µM)	64 µg/mL (≈ 36 µM)		4 µg/mL (≈ 2.25 µM)	128 µg/mL (≈ 71.9 µM)	16 µg/mL (≈ 8.99 µM)	128 µg/mL (≈ 71.9 µM)	32 µg/mL (≈ 18 µM)	8 µg/mL (≈ 4.5 µM)	128 µg/mL (≈ 71.9 µM)	128 µg/mL (≈ 71.9 µM)	32 µg/mL (≈ 18 µM)	16 µg/mL (≈ 8.99 µM)	32 µg/mL (≈ 18 µM)
CC[C@H](C)[C@H](N)C(=O)N[C@@H](CCCNC(=N)N)C(=O)N1CCC[C@H]1C(=O)N[C@@H](CC(C)C)C(=O)N[C@H](C(=O)N[C@@H](CCC(N)=O)C(=O)N1CCC[C@H]1C(=O)N[C@@H](CCCNC(=N)N)C(=O)N[C@@H](Cc1ccc(O)cc1)C(=O)N[C@@H](CCCNC(=N)N)C(=O)N[C@@H](Cc1ccccc1)C(=O)N[C@@H](Cc1ccc(O)cc1)C(=O)N1CCC[C@H]1C(=O)N[C@@H](CCCNC(=N)N)C(=O)N[C@@H](CCCCN)C(=O)N[C@@H](CCCNC(=N)N)C(=O)N[C@@H](CC(C)C)C(N)=O)C(C)C [QLX-3DV-20] (H-IRPLVQPRYRFYPRKRL-NH2)	64 µg/mL (≈ 28.3 µM)		64 µg/mL (≈ 28.3 µM)	16 µg/mL (≈ 7.09 µM)		16 µg/mL (≈ 7.09 µM)		16 µg/mL (≈ 7.09 µM)	32 µg/mL (≈ 14.2 µM)		64 µg/mL (≈ 28.3 µM)	64 µg/mL (≈ 28.3 µM)	32 µg/mL (≈ 14.2 µM)	
